According to the NIST ThermoML archive (doi:10.1021/je1002237):

Assay: xn = mol fraction of the nth substance listed
Details: 101 kPa, Liquid

CCOS(=O)(=O)[O-].CCn1cc[n+](C)c1 [1-ethyl-3-methylimidazolium ethyl sulfate] + CCO
mass density [kg/m3]
Details | 278.15 K | 283.15 K | 288.15 K | 293.15 K | 298.15 K | 303.15 K | 308.15 K
x2 = 0 | 1251.4 | 1247.84 | 1244.39 | 1241.01 | 1237.63 | 1234.24 | 1230.87
x2 = 0.016 | 1249.64 | 1246.08 | 1242.65 | 1239.25 | 1235.85 | 1232.45 | 1229.05
x2 = 0.0254 | 1248.22 | 1244.65 | 1241.24 | 1237.84 | 1234.43 | 1231.03 | 1227.63
x2 = 0.0425 | 1246.12 | 1242.58 | 1239.16 | 1235.76 | 1232.34 | 1228.94 | 1225.53
x2 = 0.0877 | 1240.95 | 1237.47 | 1234.04 | 1230.59 | 1227.18 | 1223.75 | 1220.34
x2 = 0.1178 | 1235.48 | 1232.05 | 1228.59 | 1225.14 | 1221.7 | 1218.26 | 1214.84
x2 = 0.142 | 1231.31 | 1227.85 | 1224.38 | 1220.92 | 1217.47 | 1214.02 | 1210.59
x2 = 0.2344 | 1216.31 | 1212.79 | 1209.28 | 1205.78 | 1202.3 | 1198.83 | 1195.36
x2 = 0.4236 | 1174.57 | 1170.96 | 1167.36 | 1163.79 | 1160.21 | 1156.65 | 1153.1
x2 = 0.6005 | 1116.78 | 1113.06 | 1109.36 | 1105.67 | 1101.99 | 1098.32 | 1094.66
x2 = 0.7305 | 1055.36 | 1051.54 | 1047.72 | 1043.92 | 1040.12 | 1036.36 | 1032.55
x2 = 0.833 | 987.08 | 983.14 | 979.21 | 975.3 | 971.37 | 967.46 | 963.54
x2 = 0.9022 | 925.53 | 921.55 | 917.81 | 913.45 | 910.22 | 906.22 | 902.18
x2 = 0.9567 | 863.73 | 860.74 | 856.8 | 851.32 | 848.59 | 844.44 | 840.27
x2 = 0.9846 | 826.39 | 822.21 | 818.01 | 813.81 | 809.59 | 805.36 | 801.09
x2 = 0.9924 | 814.42 | 810.28 | 806.17 | 801.75 | 797.8 | 793.53 | 789.23
x2 = 0.9963 | 808.01 | 803.79 | 799.55 | 795.3 | 791.03 | 786.74 | 782.41

CCOS(=O)(=O)[O-].CCn1cc[n+](C)c1 [1-ethyl-3-methylimidazolium ethyl sulfate] + CO
mass density [kg/m3]
Details | 278.15 K | 283.15 K | 288.15 K | 293.15 K | 298.15 K | 303.15 K | 308.15 K
x2 = 0 | 1251.04 | 1247.5 | 1244.04 | 1240.66 | 1237.27 | 1233.89 | 1230.51
x2 = 0.005 | 1250.51 | 1246.96 | 1243.52 | 1240.13 | 1236.74 | 1233.36 | 1229.98
x2 = 0.0097 | 1250.12 | 1246.57 | 1243.14 | 1239.75 | 1236.36 | 1232.97 | 1229.59
x2 = 0.015 | 1249.8 | 1246.24 | 1242.81 | 1239.42 | 1236.02 | 1232.63 | 1229.24
x2 = 0.0252 | 1248.78 | 1245.23 | 1241.82 | 1238.42 | 1235.02 | 1231.63 | 1228.25
x2 = 0.0403 | 1247.44 | 1243.88 | 1240.48 | 1237.07 | 1233.67 | 1230.27 | 1226.88
x2 = 0.0598 | 1245.64 | 1242.13 | 1238.72 | 1235.31 | 1231.89 | 1228.49 | 1225.09
x2 = 0.08 | 1243.77 | 1240.29 | 1236.86 | 1233.44 | 1230.02 | 1226.61 | 1223.2
x2 = 0.1001 | 1241.79 | 1238.35 | 1234.91 | 1231.47 | 1228.05 | 1224.63 | 1221.22
x2 = 0.15 | 1236.8 | 1233.34 | 1229.88 | 1226.42 | 1222.98 | 1219.54 | 1216.12
x2 = 0.2 | 1231.24 | 1227.75 | 1224.26 | 1220.78 | 1217.32 | 1213.87 | 1210.42
x2 = 0.3 | 1218.1 | 1214.56 | 1211.02 | 1207.5 | 1203.99 | 1200.5 | 1197.01
x2 = 0.4 | 1201.9 | 1198.3 | 1194.72 | 1191.15 | 1187.59 | 1184.05 | 1180.51
x2 = 0.4999 | 1180.84 | 1177.18 | 1173.54 | 1169.91 | 1166.29 | 1162.69 | 1159.1
x2 = 0.6 | 1153.55 | 1149.82 | 1146.1 | 1142.4 | 1138.71 | 1135.03 | 1131.37
x2 = 0.7 | 1115.57 | 1111.73 | 1107.91 | 1104.11 | 1100.31 | 1096.53 | 1092.76
x2 = 0.8 | 1059.76 | 1055.79 | 1051.82 | 1047.87 | 1043.92 | 1039.98 | 1036.05
x2 = 0.9 | 971.1 | 966.89 | 962.68 | 958.49 | 954.29 | 950.1 | 945.91
x2 = 0.95 | 902.84 | 898.44 | 894.05 | 889.67 | 885.26 | 880.86 | 876.46
x2 = 0.98 | 849.24 | 844.69 | 840.15 | 835.63 | 831.05 | 826.49 | 821.91

CCOS(=O)(=O)[O-].CCn1cc[n+](C)c1 [1-ethyl-3-methylimidazolium ethyl sulfate] + ClCCl
x2 = 0
Details | mass density [kg/m3]
278.15 K | 1251.04
283.15 K | 1247.5
288.15 K | 1244.04
293.15 K | 1240.66
298.15 K | 1237.27
303.15 K | 1233.89
308.15 K | 1230.51

CCOS(=O)(=O)[O-].CCn1cc[n+](C)c1 [1-ethyl-3-methylimidazolium ethyl sulfate] + O
mass density [kg/m3]
Details | 278.15 K | 283.15 K | 288.15 K | 293.15 K | 298.15 K | 303.15 K | 308.15 K
x2 = 0 | 1250.63 | 1247.18 | 1243.79 | 1240.39 | 1237 | 1233.63 | 1230.27
x2 = 0.0136 | 1250.46 | 1246.91 | 1243.47 | 1240.09 | 1236.7 | 1233.31 | 1229.93
x2 = 0.0253 | 1250.19 | 1246.63 | 1243.21 | 1239.82 | 1236.42 | 1233.03 | 1229.65
x2 = 0.0415 | 1249.8 | 1246.24 | 1242.85 | 1239.46 | 1236.06 | 1232.67 | 1229.29
x2 = 0.0729 | 1249.17 | 1245.66 | 1242.27 | 1238.88 | 1235.48 | 1232.09 | 1228.7
x2 = 0.1429 | 1247.67 | 1244.26 | 1240.85 | 1237.44 | 1234.04 | 1230.64 | 1227.25
x2 = 0.2344 | 1245.53 | 1242.12 | 1238.69 | 1235.28 | 1231.86 | 1228.46 | 1225.06
x2 = 0.392 | 1239.94 | 1236.5 | 1233.06 | 1229.63 | 1226.2 | 1222.78 | 1219.36
x2 = 0.5695 | 1228.84 | 1225.35 | 1221.87 | 1218.47 | 1214.98 | 1211.55 | 1208.12
x2 = 0.7408 | 1207.89 | 1204.4 | 1200.9 | 1197.39 | 1193.86 | 1190.33 | 1186.78
x2 = 0.9032 | 1149.37 | 1146.18 | 1142.95 | 1139.65 | 1136.37 | 1133.02 | 1129.61
x2 = 0.9577 | 1094.19 | 1091.9 | 1089.5 | 1086.99 | 1084.4 | 1081.7 | 1078.89
x2 = 0.984 | 1045.11 | 1043.88 | 1042.43 | 1040.71 | 1038.74 | 1036.44 | 1033.81
x2 = 0.9923 | 1023.67 | 1022.91 | 1021.88 | 1020.61 | 1019.12 | 1017.42 | 1015.54
x2 = 0.9963 | 1012.18 | 1011.69 | 1010.85 | 1009.45 | 1008.24 | 1006.56 | 1004.39
